The results in this text go back to publication PMC12155096 (International Journal of Molecular Sciences, 2025).

Structures can show the parent of a compound that is named as a salt. Where two headings read alike, the source gives them in different places.

For data set [1], the target named is T1, human CYP1A2 (Homo sapiens, UniProt P05177).
T1 sequence (P05177 1-516): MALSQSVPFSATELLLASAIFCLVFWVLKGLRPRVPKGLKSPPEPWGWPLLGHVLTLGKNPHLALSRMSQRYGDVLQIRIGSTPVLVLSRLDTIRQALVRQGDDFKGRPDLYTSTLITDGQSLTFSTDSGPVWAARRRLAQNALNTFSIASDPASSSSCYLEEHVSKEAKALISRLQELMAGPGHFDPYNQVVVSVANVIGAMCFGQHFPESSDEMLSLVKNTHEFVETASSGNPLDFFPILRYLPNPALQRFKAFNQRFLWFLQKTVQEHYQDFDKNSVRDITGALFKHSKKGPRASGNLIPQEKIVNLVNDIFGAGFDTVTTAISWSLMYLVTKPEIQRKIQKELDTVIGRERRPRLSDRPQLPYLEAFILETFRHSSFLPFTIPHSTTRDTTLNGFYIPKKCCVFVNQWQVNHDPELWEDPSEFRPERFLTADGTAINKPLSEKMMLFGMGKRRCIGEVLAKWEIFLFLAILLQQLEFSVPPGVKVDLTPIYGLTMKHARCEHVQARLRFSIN

Data set [2] has as its target T2, human CYP2C9 (Homo sapiens, UniProt P11712).
In data set [3] the target is T3, human CYP2C19 (Homo sapiens, UniProt P33261).
T3 sequence (P33261 whole entry): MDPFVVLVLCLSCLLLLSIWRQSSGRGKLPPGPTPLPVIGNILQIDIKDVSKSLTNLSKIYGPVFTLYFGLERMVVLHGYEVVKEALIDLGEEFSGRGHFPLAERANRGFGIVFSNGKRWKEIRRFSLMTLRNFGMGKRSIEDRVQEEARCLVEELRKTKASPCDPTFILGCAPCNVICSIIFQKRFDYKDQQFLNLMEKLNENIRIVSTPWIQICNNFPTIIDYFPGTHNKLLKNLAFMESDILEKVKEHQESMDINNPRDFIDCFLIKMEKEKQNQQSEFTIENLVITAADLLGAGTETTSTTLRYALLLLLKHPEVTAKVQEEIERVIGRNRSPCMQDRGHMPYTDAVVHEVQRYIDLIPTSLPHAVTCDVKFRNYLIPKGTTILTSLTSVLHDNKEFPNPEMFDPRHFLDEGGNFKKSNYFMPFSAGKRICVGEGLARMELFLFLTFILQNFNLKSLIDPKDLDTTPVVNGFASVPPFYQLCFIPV
The target in data set [4] is human CYP2D6 (Homo sapiens, UniProt P10635).
Chain of human CYP2D6 (P10635 whole entry): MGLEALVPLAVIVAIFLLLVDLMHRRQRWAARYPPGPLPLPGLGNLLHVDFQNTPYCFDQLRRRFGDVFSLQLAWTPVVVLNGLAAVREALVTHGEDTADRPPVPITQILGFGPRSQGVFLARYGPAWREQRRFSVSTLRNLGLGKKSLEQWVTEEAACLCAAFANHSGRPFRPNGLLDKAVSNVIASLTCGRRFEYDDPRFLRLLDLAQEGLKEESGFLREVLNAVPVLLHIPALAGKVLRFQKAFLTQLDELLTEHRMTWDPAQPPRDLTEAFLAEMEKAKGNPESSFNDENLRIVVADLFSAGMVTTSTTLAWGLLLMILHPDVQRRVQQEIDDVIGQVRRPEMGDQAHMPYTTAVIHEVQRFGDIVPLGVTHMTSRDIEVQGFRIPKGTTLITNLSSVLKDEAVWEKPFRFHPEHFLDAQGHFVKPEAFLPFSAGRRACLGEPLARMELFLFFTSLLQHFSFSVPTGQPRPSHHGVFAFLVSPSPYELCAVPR
The target in data set [5] is Photinus pyralis (firefly) luciferase (Photinus pyralis, UniProt P08659). The data set is described as follows: biochemical. Type of data set: biochemical.
Chain of Photinus pyralis (firefly) luciferase (P08659 whole entry): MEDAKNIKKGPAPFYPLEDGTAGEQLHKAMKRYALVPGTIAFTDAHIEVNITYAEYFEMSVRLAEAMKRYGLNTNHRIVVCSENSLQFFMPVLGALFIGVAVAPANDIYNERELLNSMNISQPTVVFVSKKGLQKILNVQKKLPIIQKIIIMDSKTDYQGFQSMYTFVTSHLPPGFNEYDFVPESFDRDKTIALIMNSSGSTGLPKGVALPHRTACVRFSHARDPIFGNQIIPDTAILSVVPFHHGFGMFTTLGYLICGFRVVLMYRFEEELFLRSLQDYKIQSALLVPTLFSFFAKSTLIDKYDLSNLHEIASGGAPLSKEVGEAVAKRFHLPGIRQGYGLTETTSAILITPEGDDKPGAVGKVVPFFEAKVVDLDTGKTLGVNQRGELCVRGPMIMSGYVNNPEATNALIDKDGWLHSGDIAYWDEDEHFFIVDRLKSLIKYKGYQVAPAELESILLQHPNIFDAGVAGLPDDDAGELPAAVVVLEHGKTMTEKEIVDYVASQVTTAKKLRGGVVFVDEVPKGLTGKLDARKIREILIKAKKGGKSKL
The target in data set [6] is T3, human CYP2C19. The data set is described as follows: biochemical.
Data set [7] addresses T1, human CYP1A2. Put plainly: biochemical.
The target of data set [8] is T2, human CYP2C9. Put plainly: biochemical.

T2 sequence (P11712 whole entry): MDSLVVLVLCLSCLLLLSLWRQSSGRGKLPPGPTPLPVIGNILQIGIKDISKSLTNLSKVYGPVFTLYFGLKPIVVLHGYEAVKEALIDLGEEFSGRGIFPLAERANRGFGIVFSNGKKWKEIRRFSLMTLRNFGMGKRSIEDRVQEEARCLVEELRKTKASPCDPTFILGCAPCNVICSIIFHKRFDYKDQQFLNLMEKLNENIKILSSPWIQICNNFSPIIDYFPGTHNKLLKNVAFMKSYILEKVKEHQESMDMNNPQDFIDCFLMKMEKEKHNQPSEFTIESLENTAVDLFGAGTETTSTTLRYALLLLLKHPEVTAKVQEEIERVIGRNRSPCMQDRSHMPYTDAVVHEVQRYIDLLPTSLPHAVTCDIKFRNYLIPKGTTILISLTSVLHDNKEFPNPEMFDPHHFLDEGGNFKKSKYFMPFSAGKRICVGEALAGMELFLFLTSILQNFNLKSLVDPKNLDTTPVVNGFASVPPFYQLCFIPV

With HMR1171 trifluoroacetate (1:1), the “CYP1A2 IC50” value in data set [1] is listed as “Inactive”. Besides, the IC50 in data set [2] amounted to 28.1 µM; in data set [3] it was 28.3 µM; in data set [4], 8.87 µM. Besides, the “Luciferase IC50” value in data set [5] was “Inactive”.
On to `Cl.Cl.c1ccc(CNCCNCc2ccccc2)cc1`, for which, in data set [1], the “CYP1A2 Efficacy” value is 20.22 ± 5.13 (-47 ± 10) %. For the same compound, the “CYP2C9 IC50” value in data set [2] is “Inactive”. Besides, in data set [3], the “CYP2C19 Efficacy” value is recorded as 8.08 ± 0.55 (-122 ± 16) %. Further, the “CYP2D6 Efficacy” value in data set [4] is reported as 0.79 ± 0.18 (-110 ± 5) %. The “Luciferase IC50” value in data set [5] is “Inactive”.
In the case of `C[C@@H](NCCCc1cccc(C(F)(F)F)c1)c1cccc2ccccc12` [Cinacalcet hydrochloride], the IC50 in data set [6] is 10.8 ± 2.69 µM; in data set [7], 26.9 ± 8.25 µM; in data set [4] (human) it was 0.05 µM; in data set [8], 38.9 µM. The “Luciferase IC50” value in data set [5] is “Inactive”.
As to `C[C@@H](Cc1ccccc1)NCc1ccccc1Cl.Cl` [Clobenzorex hydrochloride], the “CYP1A2 Efficacy” value in data set [1] was 15.49 ± 0 (-71 ± 4) %. In data set [2], the “CYP2C9 IC50” value is “Inactive”. In addition, the “CYP2C19 Efficacy” value in data set [3] was 1.49 ± 0.1 (-137 ± 12) %. For the same compound, the “CYP2D6 Efficacy” value in data set [4] is reported as 0.15 ± 0.03 (-111 ± 2) %. In addition, the “Luciferase IC50” value in data set [5] was “Inactive”.
As for `CCCCCCCCCCCCCCCC[N+](C)(C)C.[Cl-]` [Hexadecyl trimethyl ammonium chloride], the “CYP1A2 IC50” value in data set [1] is on record as “Inactive”. The “CYP2C9 IC50” value in data set [2] is “Inactive”. Further, the “CYP2C19 Efficacy” value in data set [3] is 43.2 ± 0.0 (-68 ± 16) %. For the same compound, the “CYP2D6 Efficacy” value in data set [4] is reported as 0.8 ± 0.05 (-93 ± 8) %. Further, in data set [5], the “Luciferase IC50” value is reported as “Inactive”.
As to `Cl[C@H]1[C@H](Cl)[C@@H](Cl)[C@H](Cl)[C@@H](Cl)[C@@H]1Cl` [beta-Hexachlorocyclohexane], the results for the IC50 in data set [6] (CYP2C19 IC50), in data set [7] (CYP1A2 IC50) and in data set [8] (CYP2C9 IC50) were 1.96 µM, 1.14 µM and 4.17 µM, respectively. Further, the “CYP2D6 IC50” value in data set [4] was “Inactive”. Further, in data set [5], the “Luciferase IC50” value was “Inactive”.
Take `Cc1ccc2nc(N)[nH]c(=O)c2c1Sc1ccncc1.Cl.Cl` [Nolatrexed dihydrochloride]: in data set [1], the “CYP1A2 Efficacy” value is listed as 3.33 ± 0.9 (-94 ± 12) %. In data set [2], the “CYP2C9 Efficacy” value is given as 4.82 ± 1.17 (-95 ± 9) %. The “CYP2C19 Efficacy” value in data set [3] is on record as 3.3 ± 1.68 (-116 ± 1) %. In addition, the “CYP2D6 Efficacy” value in data set [4] is 14.43 ± 1.84 (-95 ± 12) %. The “Luciferase IC50” value in data set [5] is “Inactive”.
On to `CN1C[C@H](CNC(=O)OCc2ccccc2)C[C@@H]2c3cccc4c3c(cn4C)C[C@H]21` [Metergoline], for which the “Luciferase IC50” value in data set [5] is on record as “Inactive”.
On the same count and under the same terms, the value for `CCc1cc(Cc2cc(CC)c(N)c(CC)c2)cc(CC)c1N` [4,4'-Methylenebis(2,6-diethylaniline)] was “Inactive”.
Consider `Clc1ccccc1CN1CCc2sccc2C1` [Ticlopidine hydrochloride], for which, in data set [5], the IC50 amounted to 8.71 µM.
Regarding `C[C@@H]1CC[C@H]2[C@@H](C)C(=O)O[C@@H]3O[C@@]4(C)CC[C@@H]1[C@]32OO4` [Artemisinin], the “Luciferase IC50 (half-maximal inhibitory concentration)” value in data set [5] was “Inactive”.
Same read-out and setting: the value for `CCOC(=O)OC(C)OC(=O)[C@@H]1N2C(=O)[C@@H](NC(=O)[C@H](N)c3ccccc3)[C@H]2SC1(C)C` (stereo partly drawn) [Bacampicillin hydrochloride] was “Inactive”.
As for `CCC(C)n1ncn(-c2ccc(N3CCN(c4ccc(OCC5COC(Cn6cncn6)(c6ccc(Cl)cc6Cl)O5)cc4)CC3)cc2)c1=O` (stereo not drawn) [Itraconazole], the IC50 in data set [6] (CYP2C19 IC50 (half-maximal inhibitory concentration)) worked out at 8.3 µM; in data set [8] (CYP2C9 IC50 (half-maximal inhibitory concentration)), 14 µM. For the same compound, in data set [1], the “CYP1A2 IC50 (half-maximal inhibitory concentration)” value was “Inactive”. Also, the “CYP2C9 Efficacy (in parenthesis)” value in data set [2] (human) is reported as 14.05 ± 3.21 (-81 ± 13) %. Also, in data set [3] (human), the “CYP2C19 Efficacy (in parenthesis)” value is 8.3 ± 4.22 (-53 ± 15) %. The “CYP2D6 IC50 (half-maximal inhibitory concentration)” value in data set [4] is “Inactive”. Further, in data set [5], the “Luciferase IC50 (half-maximal inhibitory concentration)” value is “Inactive”.
`CC(C)(C)NC(=O)[C@@H]1CN(Cc2cccnc2)CCN1C[C@@H](O)C[C@@H](Cc1ccccc1)C(=O)N[C@H]1c2ccccc2C[C@H]1O` [Indinavir sulfate]: the “Luciferase IC50 (half-maximal inhibitory concentration)” value in data set [5] is “Inactive”.
The same measure, in the same setting: next, `COCCOC(=O)C1=C(C)NC(C)=C(C(=O)OC(C)C)C1c1cccc([N+](=O)[O-])c1` (stereo not drawn) [Nimodipine]: “Inactive”.
As to `OCCOCCN1CCN(C(c2ccccc2)c2ccc(Cl)cc2)CC1` (stereo not drawn) [Hydroxyzine hydrochloride], in data set [5], the “Luciferase IC50” value is “Inactive”.
In the case of `CC#C[C@]1(O)CC[C@H]2[C@@H]3C[C@H](C)C4=CC(=O)CC[C@]4(C)[C@H]3CC[C@@]21C` [Dimethisteron], the IC50 in data set [6] (CYP2C19 IC50) turned out to be 9.42 µM; in data set [8] (CYP2C9 IC50), 24.1 µM. In addition, the “CYP1A2 IC50” value in data set [1] is “Inactive”. In addition, the “CYP2D6 IC50” value in data set [4] is recorded as “Inactive”. For the same compound, the “Luciferase IC50” value in data set [5] is “Inactive”.
As to `CCCCCCCCCCCCCCCCCC(=O)O.OCCN(CCO)CCO` [Triethanolamine stearate], in data set [1], the “CYP1A2 Efficacy (in parenthesis)” value is 3.98 ± 2.02 (-97 ± 4) % and the IC50 was found to be 3.98 µM. Also, in data set [2], the “CYP2C9 Efficacy (in parenthesis)” value is reported as 1.38 ± 0.34 (-98 ± 6) % and the IC50 stood at 1.38 µM. In data set [3], the “CYP2C19 Efficacy (in parenthesis)” value is 0.42 ± 0.18 (-127 ± 1) % and the IC50 worked out at 0.42 µM. Further, in data set [4], the “CYP2D6 Efficacy (in parenthesis)” value was 35.34 ± 0 (-82 ± 6) % and the IC50 was 35.3 µM. The “Luciferase Efficacy (in parenthesis)” value in data set [5] is recorded as 74.82 ± 6.08 (-26 ± 14) %. Also, the IC50 in data set [5] (read-out: Luciferase IC50 (half-maximal inhibitory concentration)) amounted to 74.8 µM.
Take `CC(CN(C)C)CN1c2ccccc2Sc2ccccc21.CC(CN(C)C)CN1c2ccccc2Sc2ccccc21.O=C(O)C(O)C(O)C(=O)O` (stereo not drawn) [Trimeprazine tartrate]: in data set [5], the “Luciferase IC50 (half-maximal inhibitory concentration)” value is on record as “Inactive”.
As for `CC[C@@H](CO)NC(=O)[C@@H]1C=C2c3cccc4[nH]cc(c34)C[C@H]2N(C)C1` [Methergine], the “Luciferase IC50” value in data set [5] is “Inactive”.
As to `Cc1c(-c2ccc(O)cc2)n(Cc2ccc(OCCN3CCCCCC3)cc2)c2ccc(O)cc12` [Bazedoxifene], the “Luciferase IC50 (half-maximal inhibitory concentration)” value in data set [5] is given as “Inactive”.
On to `CCC(CN)=C(c1ccccc1)c1ccccc1.Cl` [Etifelmine hydrochloride], for which, in data set [1], the “CYP1A2 Efficacy” value is reported as 14.36 ± 3.71 (-50 ± 13) %. Besides, the “CYP2C9 Efficacy” value in data set [2] is 11.85 ± 3.88 (-96 ± 8) %. Also, the “CYP2C19 Efficacy” value in data set [3] was 5.99 ± 2.37 (-107 ± 10) %. In data set [4], the “CYP2D6 Efficacy” value is given as 4.07 ± 0.52 (-106 ± 3) %. The “Luciferase IC50” value in data set [5] is given as “Inactive”.
For `CCCNCC(O)COc1ccccc1C(=O)CCc1ccccc1` (stereo not drawn) [Propafenone hydrochloride], the “Luciferase IC50 (half-maximal inhibitory concentration)” value in data set [5] is “Inactive”.
Still for that read-out and setting: the value for `COc1ccc(CCN(C)CCCC(C#N)(c2cc(OC)c(OC)c(OC)c2)C(C)C)cc1OC` (stereo not drawn) [Gallopamil hydrochloride] was “Inactive”.
Take `CC#C[C@]1(O)CC[C@H]2[C@@H]3CCC4=CC(=O)CCC4=C3[C@@H](c3ccc(N(C)C)cc3)C[C@@]21C` [Mifepristone]: the “Luciferase IC50” value in data set [5] is recorded as “Inactive”.
For the compound `CC(CNC1CCCCC1)OC(=O)c1ccccc1` (stereo not drawn) [Hexylcaine hydrochloride], in data set [5], the “Luciferase IC50 (half-maximal inhibitory concentration)” value is reported as “Inactive”.
For the compound `Clc1ccc(C(Cn2ccnc2)OCc2c(Cl)cccc2Cl)c(Cl)c1` (stereo not drawn) [Isoconazole nitrate], the “Luciferase IC50 (half-maximal inhibitory concentration)” value in data set [5] is on record as “Inactive”.
Consider `[Cl-].c1ccc(C[P+](c2ccccc2)(c2ccccc2)c2ccccc2)cc1` [Benzyltriphenylphosphonium chloride], for which, in data set [5], the “Luciferase IC50 (half-maximal inhibitory concentration)” value is listed as “Inactive”.
The same measure, in the same setting: the value for `COc1cc(NC(C)CCCN)c2ncccc2c1` (stereo not drawn) [Primaquine diphosphate] was “Inactive”.
As for `C#Cc1ccc(-c2ccccc2F)cc1` [Fluretofene], the IC50 in data set [6] came out at 25.7 µM; in data set [7], 0.88 µM; in data set [8] it was 16.1 µM; in data set [5], 25.8 µM.
For the compound Kadethrin, the “Luciferase IC50” value in data set [5] was “Inactive”.
`CN(C)c1ccc2nc3ccc(=[N+](C)C)cc-3sc2c1` [Methylene blue] gave an IC50 in data set [5] of 29.1 µM.
Consider `CNCCCC12CCC(c3ccccc31)c1ccccc12` [Maprotiline hydrochloride], for which the “Luciferase IC50” value in data set [5] is listed as “Inactive”.
Regarding `CCN(CCCCOC(=O)c1ccc(OC)c(OC)c1)C(C)Cc1ccc(OC)cc1` (stereo not drawn) [Mebeverine hydrochloride], in data set [5], the “Luciferase IC50 (half-maximal inhibitory concentration)” value is listed as “Inactive”.
As for `CCCCCCCCCCCCCCCC[N+](C)(C)Cc1ccccc1.[Cl-]` [Benzylhexadecyldimethylammonium chloride], the “CYP1A2 Efficacy” value in data set [1] was 75.23 ± 5.09 (-82 ± 8) %. For the same compound, the “CYP2C9 Efficacy” value in data set [2] was 46.2 ± 8.63 (-120 ± 17) %. Moreover, the “CYP2C19 Efficacy” value in data set [3] is 46.97 ± 13.09 (-144 ± 26) %. Further, the “CYP2D6 Efficacy” value in data set [4] is 0.34 ± 0.06 (-98 ± 2) %. The “Luciferase IC50” value in data set [5] is “Inactive”.
